Molecular target: recombinant human His-ATG7 enzyme (Homo sapiens (Human), UniProt O95352)
Assay: ATG7 Enzyme Assay (HTRF/FRET, ATG3-GST and Flag-Gabarap)
Format: biochemical
Details: for inhibition at 0.123 µM: Concentration 0.123 μM; for inhibition at 0.111 µM: Concentration 0.111 μM
Outline: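 HTRF read-out after 2 h at 24° C, using Eu-cryptate anti-Flag and XL-APC anti-GST antibodies in an EDTA stop buffer. The preceding 105 min, 24° C reaction (pH 7.5) held 10 μM ATP, 5 nM each ATG3-GST and Flag-Gabarap, and 0.15 nM human His-ATG7. Values are IC50 or percent inhibition at one concentration.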

recombinant human His-ATG7 enzyme, sequence (O95352 whole entry): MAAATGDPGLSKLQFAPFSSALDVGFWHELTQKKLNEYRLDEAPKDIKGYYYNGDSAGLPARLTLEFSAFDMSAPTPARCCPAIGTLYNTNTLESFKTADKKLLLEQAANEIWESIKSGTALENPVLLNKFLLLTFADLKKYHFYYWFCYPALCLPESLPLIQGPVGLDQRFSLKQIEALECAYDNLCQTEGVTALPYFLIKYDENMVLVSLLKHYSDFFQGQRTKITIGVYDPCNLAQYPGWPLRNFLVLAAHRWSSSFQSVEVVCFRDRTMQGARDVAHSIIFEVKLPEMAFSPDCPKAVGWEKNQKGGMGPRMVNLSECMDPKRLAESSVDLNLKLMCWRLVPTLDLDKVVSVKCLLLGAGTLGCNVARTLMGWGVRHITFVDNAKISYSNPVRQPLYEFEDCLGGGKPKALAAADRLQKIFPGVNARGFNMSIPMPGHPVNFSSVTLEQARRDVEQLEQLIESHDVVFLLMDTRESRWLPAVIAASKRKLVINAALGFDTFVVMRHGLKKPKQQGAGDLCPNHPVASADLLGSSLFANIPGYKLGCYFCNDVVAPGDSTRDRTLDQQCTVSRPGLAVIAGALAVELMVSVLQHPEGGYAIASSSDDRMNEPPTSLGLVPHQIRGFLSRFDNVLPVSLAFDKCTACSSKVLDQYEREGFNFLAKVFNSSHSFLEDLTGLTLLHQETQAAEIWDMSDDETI

An IC50 of 50 to 100 nM and an inhibition at 0.123 µM (read-out: Percent Inhibition) of 62% were found for C=Cc1nn([C@@H]2O[C@H](COS(N)(=O)=O)[C@@H](O)[C@H]2O)c2ncnc(N)c12 [Compound I-18, [(2R,3S,4R,5R)-5-(4-amino-3-vinyl-1H-pyrazolo[3,4-d]pyrimidin-1-yl)-3,4-dihydroxytetrahydrofuran-2-yl]methyl Sulfamate] in this work.

An IC50 of 100 to 500 nM and an inhibition at 0.123 µM (read-out: Percent Inhibition) of 32% were found for COCc1nn([C@@H]2O[C@H](COS(N)(=O)=O)[C@@H](O)[C@H]2O)c2ncnc(N)c12 [Compound I-19, {(2R,3S,4R,5R)-5-[4-amino-3-(methoxymethyl)-1H-pyrazolo[3,4-d]pyrimidin-1-yl]-3,4-dihydroxytetrahydrofuran-2-yl}methyl Sulfamate] in this work.

An IC50 of 100 to 500 nM and an inhibition at 0.123 µM (read-out: Percent Inhibition) of 22% were found for CC(=O)c1nn([C@@H]2O[C@H](COS(N)(=O)=O)[C@@H](O)[C@H]2O)c2ncnc(N)c12 [Compound I-21, [(2R,3S,4R,5R)-5-(3-acetyl-4-amino-1H-pyrazolo[3,4-d]pyrimidin-1-yl)-3,4-dihydroxytetrahydrofuran-2-yl]methyl Sulfamate] in this work.

An IC50 of over 500 nM and an inhibition at 0.123 µM (read-out: Percent Inhibition) of 11% were found for CC(C)(O)c1nn([C@@H]2O[C@H](COS(N)(=O)=O)[C@@H](O)[C@H]2O)c2ncnc(N)c12 [Compound I-24, {(2R,3S,4R,5R)-5-[4-amino-3-(2-hydroxypropan-2-yl)-1H-pyrazolo[3,4-d]pyrimidin-1-yl]-3,4-dihydroxytetrahydrofuran-2-yl}methyl Sulfamate] in this work.

An IC50 of 50 to 100 nM and an inhibition at 0.123 µM (read-out: Percent Inhibition) of 64% were found for Nc1ncnc2c1c(C(F)F)nn2[C@@H]1O[C@H](COS(N)(=O)=O)[C@@H](O)[C@H]1O [Compound I-25, {(2R,3S,4R,5R)-5-[4-amino-3-(difluoromethyl)-1H-pyrazolo[3,4-d]pyrimidin-1-yl]-3,4-dihydroxytetrahydrofuran-2-yl}methyl Sulfamate] in this work.

An IC50 of 50 to 100 nM and an inhibition at 0.123 µM (read-out: Percent Inhibition) of 53% were found for Nc1ncnc2c1c(C1CC1)nn2[C@@H]1O[C@H](COS(N)(=O)=O)[C@@H](O)[C@H]1O [Compound I-26, [(2R,3S,4R,5R)-5-(4-amino-3-cyclopropyl-1H-pyrazolo[3,4-d]pyrimidin-1-yl)-3,4-dihydroxytetrahydrofuran-2-yl]methyl Sulfamate] in this work.

An IC50 of 20 to 50 nM and an inhibition at 0.123 µM (read-out: Percent Inhibition) of 78% were found for Nc1ncnc2c1c(OC(F)F)nn2[C@@H]1O[C@H](COS(N)(=O)=O)[C@@H](O)[C@H]1O [Compound I-27, {(2R,3S,4R,5R)-5-[4-amino-3-(difluoromethoxy)-1H-pyrazolo[3,4-d]pyrimidin-1-yl]-3,4-dihydroxytetrahydrofuran-2-yl}methyl Sulfamate] in this work.

An IC50 of 50 to 100 nM and an inhibition at 0.123 µM (read-out: Percent Inhibition) of 71% were found for CC(C)(O)CSc1nn([C@@H]2O[C@H](COS(N)(=O)=O)[C@@H](O)[C@H]2O)c2ncnc(N)c12 [Compound I-28, [(2R,3S,4R,5R)-5-{4-amino-3-[(2-hydroxy-2-methylpropyl)sulfanyl]-1H-pyrazolo[3,4-d]pyrimidin-1-yl}-3,4-dihydroxytetrahydrofuran-2-yl]methyl sulfamate] in this work.

An IC50 of over 500 nM and an inhibition at 0.123 µM (read-out: Percent Inhibition) of 26% were found for N#CCc1nn([C@@H]2O[C@H](COS(N)(=O)=O)[C@@H](O)[C@H]2O)c2ncnc(N)c12 [Compound I-29, {(2R,3S,4R,5R)-5-[4-amino-3-(cyanomethyl)-1H-pyrazolo[3,4-d]pyrimidin-1-yl]-3,4-dihydroxytetrahydrofuran-2-yl}methyl Sulfamate] in this work.

An IC50 of over 500 nM and an inhibition at 0.123 µM (read-out: Percent Inhibition) of 15% were found for Nc1ncnc2c1c(-c1nccs1)nn2[C@@H]1O[C@H](COS(N)(=O)=O)[C@@H](O)[C@H]1O [Compound I-30, {(2R,3S,4R,5R)-5-[4-amino-3-(1,3-thiazol-2-yl)-1H-pyrazolo[3,4-d]pyrimidin-1-yl]-3,4-dihydroxytetrahydrofuran-2-yl}methyl sulfamate] in this work.

An IC50 of 20 to 50 nM and an inhibition at 0.123 µM (read-out: Percent Inhibition) of 85% were found for Cc1cccc(CSc2nn([C@@H]3O[C@H](COS(N)(=O)=O)[C@@H](O)[C@H]3O)c3ncnc(N)c23)c1 [Compound I-31, [(2R,3S,4R,5R)-5-{4-amino-3-[(3-methylbenzyl)sulfanyl]-1H-pyrazolo[3,4-d]pyrimidin-1-yl}-3,4-dihydroxytetrahydrofuran-2-yl]methyl sulfamate] in this work.

An IC50 of 20 to 50 nM and an inhibition at 0.123 µM (read-out: Percent Inhibition) of 73% were found for Nc1ncnc2c1c(SCc1ccc(OC(F)(F)F)cc1)nn2[C@@H]1O[C@H](COS(N)(=O)=O)[C@@H](O)[C@H]1O [Compound I-32, [(2R,3S,4R,5R)-5-(4-amino-3-{[4-(trifluoromethoxy)benzyl]sulfanyl}-1H-pyrazolo[3,4-d]pyrimidin-1-yl)-3,4-dihydroxytetrahydrofuran-2-yl]methyl sulfamate] in this work.

An IC50 of 20 to 50 nM and an inhibition at 0.123 µM (read-out: Percent Inhibition) of 82% were found for Nc1ncnc2c1c(SCc1ccc(C(F)(F)F)cc1)nn2[C@@H]1O[C@H](COS(N)(=O)=O)[C@@H](O)[C@H]1O [Compound I-33, [(2R,3S,4R,5R)-5-(4-amino-3-{[4-(trifluoromethyl)benzyl]sulfanyl}-1H-pyrazolo[3,4-d]pyrimidin-1-yl)-3,4-dihydroxytetrahydrofuran-2-yl]methyl sulfamate] in this work.

An IC50 of 50 to 100 nM and an inhibition at 0.123 µM (read-out: Percent Inhibition) of 70% were found for Nc1ncnc2c1c(Sc1ccc(Cl)cc1Cl)nn2[C@@H]1O[C@H](COS(N)(=O)=O)[C@@H](O)[C@H]1O [Compound I-34, [(2R,3S,4R,5R)-5-{4-amino-3-[(2,4-dichlorophenyl)sulfanyl]-1H-pyrazolo[3,4-d]pyrimidin-1-yl}-3,4-dihydroxytetrahydrofuran-2-yl]methyl sulfamate] in this work.

An IC50 of 20 to 50 nM and an inhibition at 0.123 µM (read-out: Percent Inhibition) of 72% were found for COCCSc1nn([C@@H]2O[C@H](COS(N)(=O)=O)[C@@H](O)[C@H]2O)c2ncnc(N)c12 [Compound I-35, [(2R,3S,4R,5R)-5-{4-amino-3-[(2-methoxyethyl)sulfanyl]-1H-pyrazolo[3,4-d]pyrimidin-1-yl}-3,4-dihydroxytetrahydrofuran-2-yl]methyl sulfamate] in this work.

An IC50 of under 20 nM and an inhibition at 0.111 µM (read-out: Percent Inhibition) of 88% were found for Nc1ncnc2c1c(Sc1cn[nH]c1)nn2[C@@H]1O[C@H](COS(N)(=O)=O)[C@@H](O)[C@H]1O [Compound I-36, {(2R,3S,4R,5R)-5-[4-amino-3-(1H-pyrazol-4-ylsulfanyl)-1H-pyrazolo[3,4-d]pyrimidin-1-yl]-3,4-dihydroxytetrahydrofuran-2-yl}methyl sulfamate] in this work.

An IC50 of over 500 nM and an inhibition at 0.069 µM (Concentration 0.069 μM, read-out: Percent Inhibition) of 7% were found for Nc1ncnc2c1c(Oc1ccccc1)nn2[C@@H]1O[C@H](COS(N)(=O)=O)[C@@H](O)[C@H]1O [Compound I-37, [(2R,3S,4R,5R)-5-(4-amino-3-phenoxy-1H-pyrazolo[3,4-d]pyrimidin-1-yl)-3,4-dihydroxytetrahydrofuran-2-yl]methyl sulfamate] in this work.

An IC50 of 20 to 50 nM and an inhibition at 0.123 µM (read-out: Percent Inhibition) of 84% were found for COc1ccc(CSc2nn([C@@H]3O[C@H](COS(N)(=O)=O)[C@@H](O)[C@H]3O)c3ncnc(N)c23)cc1 [Compound I-38, [(2R,3S,4R,5R)-5-{4-amino-3-[(4-methoxybenzyl)sulfanyl]-1H-pyrazolo[3,4-d]pyrimidin-1-yl}-3,4-dihydroxytetrahydrofuran-2-yl]methyl sulfamate] in this work.

An IC50 of 20 to 50 nM and an inhibition at 0.123 µM (read-out: Percent Inhibition) of 75% were found for Cc1ccccc1CSc1nn([C@@H]2O[C@H](COS(N)(=O)=O)[C@@H](O)[C@H]2O)c2ncnc(N)c12 [Compound I-39, [(2R,3S,4R,5R)-5-{4-amino-3-[(2-methylbenzyl)sulfanyl]-1H-pyrazolo[3,4-d]pyrimidin-1-yl}-3,4-dihydroxytetrahydrofuran-2-yl]methyl sulfamate] in this work.

An IC50 of under 20 nM and an inhibition at 0.123 µM (read-out: Percent Inhibition) of 85% were found for Nc1ncnc2c1c(Sc1cccc(Cl)c1)nn2[C@@H]1O[C@H](COS(N)(=O)=O)[C@@H](O)[C@H]1O [Compound I-40, [(2R,3S,4R,5R)-5-{4-amino-3-[(3-chlorophenyl)sulfanyl]-1H-pyrazolo[3,4-d]pyrimidin-1-yl}-3,4-dihydroxytetrahydrofuran-2-yl]methyl sulfamate] in this work.

An IC50 of 20 to 50 nM and an inhibition at 0.111 µM (read-out: Percent Inhibition) of 85% were found for Cc1ccc(CSc2nn([C@@H]3O[C@H](COS(N)(=O)=O)[C@@H](O)[C@H]3O)c3ncnc(N)c23)cc1 [Compound I-41, [(2R,3S,4R,5R)-5-{4-amino-3-[(4-methylbenzyl)sulfanyl]-1H-pyrazolo[3,4-d]pyrimidin-1-yl}-3,4-dihydroxytetrahydrofuran-2-yl]methyl sulfamate] in this work.

An IC50 of under 20 nM and an inhibition at 0.111 µM (read-out: Percent Inhibition) of 79% were found for CSc1nn([C@@H]2O[C@H](COS(N)(=O)=O)[C@@H](O)[C@H]2O)c2ncnc(N)c12 [Compound I-42, {(2R,3S,4R,5R)-5-[4-amino-3-(methylsulfanyl)-1H-pyrazolo[3,4-d]pyrimidin-1-yl]-3,4-dihydroxytetrahydrofuran-2-yl}methyl Sulfamate] in this work.

An IC50 of 20 to 50 nM and an inhibition at 0.123 µM (read-out: Percent Inhibition) of 75% were found for C#CCSc1nn([C@@H]2O[C@H](COS(N)(=O)=O)[C@@H](O)[C@H]2O)c2ncnc(N)c12 [Compound I-43, {(2R,3S,4R,5R)-5-[4-amino-3-(prop-2-yn-1-ylsulfanyl)-1H-pyrazolo[3,4-d]pyrimidin-1-yl]-3,4-dihydroxytetrahydrofuran-2-yl}methyl sulfamate] in this work.

An IC50 of 20 to 50 nM and an inhibition at 0.123 µM (read-out: Percent Inhibition) of 84% were found for Nc1ncnc2c1c(SCc1cccc(F)c1)nn2[C@@H]1O[C@H](COS(N)(=O)=O)[C@@H](O)[C@H]1O [Compound I-44, [(2R,3S,4R,5R)-5-{4-amino-3-[(3-fluorobenzyl)sulfanyl]-1H-pyrazolo[3,4-d]pyrimidin-1-yl}-3,4-dihydroxytetrahydrofuran-2-yl]methyl sulfamate] in this work.

An IC50 of 20 to 50 nM and an inhibition at 0.123 µM (read-out: Percent Inhibition) of 73% were found for Nc1ncnc2c1c(SCc1cccnc1)nn2[C@@H]1O[C@H](COS(N)(=O)=O)[C@@H](O)[C@H]1O [Compound I-45, [(2R,3S,4R,5R)-5-{4-amino-3-[(pyridin-3-ylmethyl)sulfanyl]-1H-pyrazolo[3,4-d]pyrimidin-1-yl}-3,4-dihydroxytetrahydrofuran-2-yl]methyl sulfamate] in this work.
